The values that follow come from US10130590B2, “Methods of treating cancer with atovaquone-related compounds” (DANA-FARBER CANCER INSTITUTE, INC., priority 2013, dated 2018).

Entries after “also recorded” stand apart in the source; their conditions may differ.

For series [1] the following is noted: clinical use; cited from earlier work.
Series [2] deals with PDGFR-β, EGFR, HER2, and IGF1R-β. The series is described as follows: Western blot of other receptors. Conditions: MEF, MDA-MB-468, SKBR3; 25 μM, 6 or 12 hours. The series is classed as cell-based. The protocol: (§1) Western blotting was performed as previously described (Battle T E, Arbiser J, & Frank D A (2005) The natural product honokiol induces caspase dependent apoptosis in B-cell chronic lymphocytic leukemia (B-CLL) cells. Blood 106(2):690-697). Antibodies to phospho-MAPK (9101), total MAPK (9102), phospho-Y705 STAT3 (9131), phospho-S6 (2215), total S6 (2217), phospho-4E-BP1 (9451), total 4E-BP1 (9644), total RSK (9355), phospho-S6K (9234, 85 used at 1:5000), total S6K (2708), phospho-eIF2α (9721, used at 1:1000), total eIF2α (5324), ATF4 (11815, used at 1:1000), PDGFRβ (3169), IGF1Rβ (9750), EGFR (2232), and HER2 (2242) were from Cell Signaling Technology. Phospho-RSK antibody was from R&D (AF889). Antibodies to total STAT3 (sc-482) and gp130 (sc-656, used at 1:1000) were from Santa Cruz Biotechnology. Phospho-S727 STAT3 antibody was described previously (229). REDD1 antibody was from Proteintech (10638-1-AP, used at 1:1000). Antibody recognizing full-length and cleaved ATF6 was from Abcam (ab122897, used at 1:1000). Antibodies to tubulin (T5168) and beta actin (A5316) were from Sigma. […] Cell viability was measured as ATP-dependent luminescence by Cell Titer Glo (Promega).
MEF, MDA-MB-468, and SKBR3 cells were treated with atovaquone (25 μM) for 6 or 12 hours, then analyzed by Western blot for expression of gp130 and various other receptors. […]
On the technique in general: In western blotting, separated proteins are transferred to a membrane and probed.

Series [3] relates to STAT3. The experiment in a line: Western blot of STAT3 phosphorylation in reporter and cancer cell lines. In kind it is cell-based, human. On the procedure:
Western blotting was performed as previously described (Battle T E, Arbiser J, & Frank D A (2005) The natural product honokiol induces caspase dependent apoptosis in B-cell chronic lymphocytic leukemia (B-CLL) cells. Blood 106(2):690-697). Antibodies to phospho-MAPK (9101), total MAPK (9102), phospho-Y705 STAT3 (9131), phospho-S6 (2215), total S6 (2217), phospho-4E-BP1 (9451), total 4E-BP1 (9644), total RSK (9355), phospho-S6K (9234, 85 used at 1:5000), total S6K (2708), phospho-eIF2α (9721, used at 1:1000), total eIF2α (5324), ATF4 (11815, used at 1:1000), PDGFRβ (3169), IGF1Rβ (9750), EGFR (2232), and HER2 (2242) were from Cell Signaling Technology. Phospho-RSK antibody was from R&D (AF889). Antibodies to total STAT3 (sc-482) and gp130 (sc-656, used at 1:1000) were from Santa Cruz Biotechnology. Phospho-S727 STAT3 antibody was described previously (229). REDD1 antibody was from Proteintech (10638-1-AP, used at 1:1000). Antibody recognizing full-length and cleaved ATF6 was from Abcam (ab122897, used at 1:1000). Antibodies to tubulin (T5168) and beta actin (A5316) were from Sigma. All antibodies were used at 1:10000 dilution for western blot unless otherwise noted. For immunoprecipitations, cells were lysed in 500 μl lysis buffer (0.5% NP-40, 150 mM NaCl, 50 mM Tris pH 7.5, with protease and phosphatase inhibitors freshly added at 1:100 [Pierce, PI78443]) on ice for 15 minutes, then centrifuged for 10 minutes at 14,000 RPM and 4° C. The supernatant was transferred to a new tube and incubated with 10 μl JAK2 antibody (Santa Cruz sc-278) or a mix of two TYK2 antibodies, 10 μl of each (Santa Cruz sc-5271 and Cell Signaling Technology 9312). Immunoprecipitation was performed overnight at 4° C. with rotation. The next day, 75 μl of protein A/G beads (Santa Cruz sc-2003) were washed twice in lysis buffer, then incubated with immunoprecipitates overnight as before. The next day, the beads were spun down (1 min. at 7,500 RPM and 4° C.) and washed 3 times with 650 μl lysis buffer for 10 minutes at 4° C. with rotation, then boiled in 50 μl sample buffer+10% β-mercaptoethanol. For Western blot, 20 μl were loaded per lane. For detection of phospho-tyrosine, a mixture of two pan-phospho-tyrosine antibodies (Cell Signaling Technology 9411 and 9416, 1:1000 of each) was used. Antibody to phospho-Y1007/1008 JAK2 was from Cell Signaling 86 Technology (3771, used at 1:1000). Antibody to phospho-Y570 JAK2 was from Millipore (09-241, used at 1:1000). Luminometric Assays Luciferase reporter cell lines were described previously (186). Firefly luciferase values were normalized by concurrent cell viability. Cell viability was measured as ATP-dependent luminescence by Cell Titer Glo (Promega).
The mechanism by which atovaquone inhibits STAT3 was investigated. STAT3-luc reporter cells were pre-treated with atovaquone (20 μM) for 1 hr, and then stimulated with IL-6 (10 ng/ml) for 15 minutes, 30 minutes, 1 hours, or 2 hours. Since STAT3 transcriptional activity is critically dependent on tyrosine phosphorylation, Western blotting was performed to see if atovaquone affected STAT3 phosphorylation. […] Next, atovaquone was used to treat U266 (2.5 hours), HEL (6 hours), or INA-6 cells (4 hours). […] In U266 and INA-6 cells, the source of STAT3 activation is JAK-dependent IL-6 signaling, while in HEL cells, STAT3 is activated by mutant JAK2-V617F. Given that atovaquone inhibits constitutive STAT3 activation in cancer cells, it was asked whether atovaquone inhibits expression of endogenous STAT3 target genes in this context.
Since atovaquone reduced gp130 expression at the cell surface, it was asked whether this effect was accompanied by reduced total gp130 in the cell. To address this question, a time course of atovaquone treatment was performed and total cellular gp130 was measured by Western blotting in U266 cells treated with atovaquone at 20 μM. […]

The test system of series [4] is INA-6 cells. The series is described as follows: Cell viability (Cell Titer Glo), INA-6. In kind it is cell-based. Conditions: 72 hours. The protocol:
as §1, with “Sigma. All antibodies were used at 1:10000 dilution for western blot unless otherwise noted.” for “Sigma.”, “(Promega). […]” for “(Promega).”

Series [5] relates to malignant hematological cell lines that lack STAT3 activation. The series is described as follows: Cell viability of hematologic cancer cells lacking STAT3 activation. In kind it is cell-based. Conditions: 72 hours. On the procedure:
as §1, with “Sigma. All antibodies were used at 1:10000 dilution for western blot unless otherwise noted.” for “Sigma.”, “(Promega). […]” for “(Promega).”

Broadly, the IC50 is the concentration that gives 50% inhibition. A low value points to greater potency in that assay. As for `O=C1C(O)=C([C@H]2CC[C@H](c3ccc(Cl)cc3)CC2)C(=O)c2ccccc21` [atovaquone, trans-2-[4-(4-chlorophenyl)cyclohexyl]-3-hydroxy-1,4-naphthalenedione], in series [1], the “side effects / tolerability” value is “side effects are minimal; also recorded: extremely well-tolerated in humans”. Further, the “levels of other receptors (PDGFR-β, EGFR, HER2, IGF1R-β)” value in series [2] is recorded as “not affected”. In series [3] (STAT3 reporter cells, 20 μM pre-treatment 1 hr, IL-6 (10 ng/ml)), the “STAT3 tyrosine phosphorylation following IL-6 stimulation” value is “reduced STAT3 tyrosine phosphorylation”. For the same compound, the “constitutive STAT3 tyrosine phosphorylation” value in series [3] (U266 (2.5 hours), HEL (6 hours), INA-6 (4 hours)) is on record as “inhibited constitutive STAT3 tyrosine phosphorylation”. In series [3] (U266, 20 μM, time course), the “time after which STAT3 phosphorylation was inhibited” value was 10 min. Besides, in series [3] (U266, HEL, INA-6 cells), the STAT3 serine phosphorylation result is recorded as “not affected”. In addition, the “inhibition of STAT3 phosphorylation after cycloheximide pre-treatment” value in series [3] (U266, cycloheximide 2 μg/ml 1 hour, atovaquone 15 μM 2.5 hours) is given as “did not affect the inhibition of STAT3 phosphorylation”. Besides, the “viability of INA-6 cells at higher doses” value in series [4] is recorded as “complete loss of viability”. Also, in series [4] (INA-6), half-maximal inhibition (IC50) was put at 11.9 µM. For the same compound, the “viability of malignant hematological cell lines that lack STAT3 activation” value in series [5] is “reduced the viability”.
